Results from patent publication US9446029B2, “Use of NK-1 receptor antagonists in management of visceral pain” (priority 2010, dated 2016).
Read-outs that look alike come from different tables or passages of the source.

Experiments:
dogs [1] = conditions: cited from earlier work
dogs [2] = assay: Sevoflurane MAC reduction by I.V. maropitant during ovarian ligament stimulation in dogs (Example 1); format: in vivo, dog; conditions: for MAC Reduction (%, mean ± SD): sevoflurane, ovarian ligament stimulation
Method: The NK1 receptor antagonist maropitant, available as […]® from Pfizer, is an antiemetic approved for use in dogs. The ability of maropitant to impact the sevoflurane minimum alveolar concentration (MAC) level needed for surgery was tested in canine subjects. The eight animals were 1 year old, intact female, Walker hound mix. A first group was administered 1 mg/kg maropitant, I.V. over 5 minutes then 30 μg/kg/h. A second group was administered 5 mg/kg maropitant, I.V. over 5 minutes then 150 μg/kg/h. General anesthesia was induced using sevoflurane as described below and otherwise according to standard veterinary procedure. Animals were maintained in dorsal recumbency. MAC reduction effect was tested by stimulation of the ovarian ligament. Ovariectomy was performed on each animal at the end of the study. In each animal, sterile laparoscopy was performed to access the right ovary. Following thirty minutes of sevoflurane at steady state, end-tidal sevoflurane concentration was measured with a calibrated agent analyzer (Biochem). […] Esophageal temperature was 37.5-39° C. Ovarian ligament stimulation was performed using 6.61 Newton's of force with a calibrated grass force displacement transducer. FIG. 1 is a bar graph comparing the MAC reduction using I.V. maropitant during […] anesthesia. The observed MAC reduction is reported at sea level (mean±SD), and compared to published results for other MAC reduction agents in Table 1.

cats = assay: Sevoflurane MAC during ovarian ligament stimulation in cats (Example 3); format: in vivo, cat; conditions: for sevoflurane anesthetic requirement MAC (mean±SD): ovarian ligament stimulation, control MAC 2.96±0.32%
Text: Ten (10) female cats were anesthetized with sevoflurane. Following stabilization, the right ovarian ligament was accessed using a laparoscopic approach to determine the anesthetic minimum alveolar concentration (MAC). The ovarian ligament was stimulated using 500 grams of traction force. The MAC is reported as mean±SD, adjusted for calibration values and to sea-level. The anesthetic requirement MAC during stimulation of the ovary was 2.96±0.32%.

dogs [3] = assay: Clinical trial of analgesia and comfort in dogs during and after spay surgery (laparotomy ovariohysterectomy), isoflurane anesthesia (Example 2); set-up: dogs showing overt signs of nausea after surgery: dose or concentration left out as unconfirmed; conditions: for Post-Operative Carprofen Rescue Analgesia (4 mg/kg, IV): dogs requiring a rescue dose: recovery period; for pain assessment, Visual Analogue Pain Scale (0-10), compared to control group: three hours following recovery from anesthesia, FIG. 6
[4] = maropitant 1 mg/kg SQ or morphine 0.5 mg/kg SQ before anesthesia

CC(=O)c1ccc2c(c1)N(CCCN(C)C)c1ccccc1S2 [Acepromazine]
MAC Reduction (%, mean ± SD) (dogs [1]; acepromazine 0.04 mg/kg, halothane, Heard et al., 1986): 40%

Oc1ccc2c(c1)[C@@]13CCCC[C@@]1(O)[C@@H](C2)N(CC1CCC1)CC3 [Butorphanol]
MAC Reduction (%, mean ± SD) (dogs [1]; dog, in vivo): 8%

CC(C(=O)O)c1ccc2c(c1)[nH]c1ccc(Cl)cc12 (centres unmarked) [Carprofen]
MAC Reduction (%, mean ± SD) (dogs [1]; carprofen 4 mg/kg, sevoflurane, Yamashita et al., 2008): 12%

Cc1cccc([C@H](C)c2cnc[nH]2)c1C [Dexmedetomidine]
MAC Reduction (%, mean ± SD) (dogs [1]; dexmedetomidine 0.5 μg/kg, 0.5 μg/kg/h, isoflurane, Pascoe et al., 2006): 18%
MAC Reduction (%, mean ± SD) (dogs [1]; dexmedetomidine 3 μg/kg, 3 μg/kg/h, isoflurane, Pascoe et al., 2006): 59%

CNC1(c2ccccc2Cl)CCCCC1=O (centres unmarked) [Ketamine]
MAC Reduction (%, mean ± SD) (dogs [1]; dog, in vivo): 47%

CCN(CC)CC(=O)Nc1c(C)cccc1C [Lidocaine]
MAC Reduction (%, mean ± SD) (dogs [1]; lidocaine 2 mg/kg, 50 μg/kg/min, isoflurane, Valverde et al., 2004): 19%
MAC Reduction (%, mean ± SD) (dogs [1]; lidocaine 2 mg/kg, 200 μg/kg/min, isoflurane, Valverde et al., 2004): 43%

COc1ccc(C(C)(C)C)cc1CN[C@H]1C2CCN(CC2)[C@@H]1C(c1ccccc1)c1ccccc1 [Maropitant, (7R,8S)—N-[(5-tert-Butyl-2-methoxyphenyl)methyl]-7-[di(phenyl)methyl]-1-azabicyclo[2.2.2]octan-8-amine]
MAC Reduction (%, mean ± SD) (dogs [2]; maropitant 1 mg/kg I.V. over 5 minutes then 30 μg/kg/h): 24%
MAC Reduction (%, mean ± SD) (dogs [2]; maropitant 5 mg/kg I.V. over 5 minutes then 150 μg/kg/h): 30%
increase of the pain threshold during anesthesia (dogs [2]; summary of Example 1 (1 and 5 mg/kg)): 24-30%
decrease of anesthetic requirement MAC (cats; higher maropitant dose IV): 17%
sevoflurane anesthetic requirement MAC (mean±SD) (cats; higher maropitant dose IV): 2.45±0.43%
sevoflurane anesthetic requirement MAC (mean±SD) (cats; maropitant 1 mg/kg IV, 500 grams traction): 2.50±0.33%
decrease of anesthetic requirement MAC (cats; maropitant 1 mg/kg IV, p<0.01): 15%
average heart rate throughout surgery (dogs [3]; [4]): 103±20 beats per minute
average respiratory rate throughout surgery (dogs [3]; [4]): 21±12 breaths per minute
dogs that started eating within 3 hours following surgery (dogs [3]; [4]): 65%
subjects responding with panting during surgical painful stimulation (dogs [3]; [4]): 35%
isoflurane anesthesia required during ovary ligation and resection (vaporizer setting) (dogs [3]; maropitant 1 mg/kg SQ or morphine 0.5 mg/kg SQ before anesthesia, FIG. 2): 1.41±0.25%
isoflurane anesthesia required during skin closure (dogs [3]; maropitant 1 mg/kg SQ or morphine 0.5 mg/kg SQ before anesthesia, end of surgery, FIG. 4): 1.26±0.19%
Post-Operative Carprofen Rescue Analgesia (4 mg/kg, IV): dogs requiring a rescue dose (dogs [3]; [4]): 18%
Post-Operative Carprofen Rescue Analgesia (4 mg/kg, IV): dogs requiring a rescue dose (dogs [3]; maropitant 1 mg/kg SQ or morphine 0.5 mg/kg SQ before anesthesia, listed as maropitant): 18%
pain assessment, Visual Analogue Pain Scale (0-10), compared to control group (dogs [3]): showed fewer overt signs of pain and discomfort

Cc1cnc(NC(=O)C2=C(O)c3ccccc3S(=O)(=O)N2C)s1 [Meloxciam]
MAC Reduction (%, mean ± SD) (dogs [1]; meloxicam 0.2 mg/kg, sevoflurane, Yamashita et al., 2008): 23%

CN1CC[C@]23c4c5ccc(O)c4O[C@H]2[C@@H](O)C=C[C@H]3[C@H]1C5 [Morphine, morphine]
MAC Reduction (%, mean ± SD) (dogs [1]; dog, in vivo): 35, 39%
dogs showing overt signs of nausea after surgery (dogs [3]; before anesthesia): 31%
average heart rate throughout surgery (dogs [3]; [4]): 115±23 beats per minute
average respiratory rate throughout surgery (dogs [3]; [4]): 27±20 breaths per minute
dogs that started eating within 3 hours following surgery (dogs [3]; [4]): 26%
dogs whose esophageal pH decreased below 5 during surgery (gastric regurgitation) (dogs [3]; [4]): 29%
subjects responding with panting during surgical painful stimulation (dogs [3]; [4]): 38%
Post-Operative Carprofen Rescue Analgesia (4 mg/kg, IV): dogs requiring a rescue dose (dogs [3]; [4]): 30%
Post-Operative Carprofen Rescue Analgesia (4 mg/kg, IV): dogs requiring a rescue dose (dogs [3]; maropitant 1 mg/kg SQ or morphine 0.5 mg/kg SQ before anesthesia, listed as morphine): 30%
pain assessment, Visual Analogue Pain Scale (0-10), compared to control group (dogs [3]): only through the initial two hours of assessment
